According to PubChem BioAssay AID1963964 (Molecular Pharmacology Branch, DTP, NCI, 2024):

Tested on: 997726-040-R-J2-PDC tumor spheroids, viability
Experiment: Anticancer human tumor 997726-040-R-J2-PDC patient-derived squamous cell lung carcinoma cell line growth inhibition [PI3K]
Conditions: spheroids with HUVEC and MSC; for IC50: curve of first compound; for viability, T/C: stronger effect = lower value
Summary of the method: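 Multi-cell spheroids combine tumor cells with HUVEC and human MSCs, treated with targeted agents alone or with inavolisib, alpelisib, duvelisib or copanlisib. Concentrations fall in half-log steps from at or near clinical Cmax, or from 10 microM where Cmax is unknown; viability read-out.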

[1] = second compound 0.0316 µM, first compound 0.0316 µM
[2] = second compound 0.0316 µM, first compound 0.1 µM
[3] = second compound 0.0316 µM, first compound 0.316 µM
[4] = second compound 0.0316 µM, first compound 1 µM
[5] = second compound 0.0316 µM, first compound 3.16 µM
[6] = second compound 0.0316 µM, first compound 10 µM
[7] = second compound 0.1 µM, first compound 0.0316 µM
[8] = second compound 0.1 µM, first compound 0.1 µM
[9] = second compound 0.1 µM, first compound 0.316 µM
[10] = second compound 0.1 µM, first compound 1 µM
[11] = second compound 0.1 µM, first compound 3.16 µM
[12] = second compound 0.1 µM, first compound 10 µM
[13] = second compound 0.316 µM, first compound 0.0316 µM
[14] = second compound 0.316 µM, first compound 0.1 µM
[15] = second compound 0.316 µM, first compound 0.316 µM
[16] = second compound 0.316 µM, first compound 1 µM
[17] = second compound 0.316 µM, first compound 3.16 µM
[18] = second compound 0.316 µM, first compound 10 µM
[19] = second compound 1 µM, first compound 0.0316 µM
[20] = second compound 1 µM, first compound 0.1 µM
[21] = second compound 1 µM, first compound 0.316 µM
[22] = second compound 1 µM, first compound 1 µM
[23] = second compound 1 µM, first compound 3.16 µM
[24] = second compound 1 µM, first compound 10 µM
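Also: spheroids exposed to compounds for seven days before readout.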

Q: Which IC50 (second compound 0.00316 µM) does the source give for CNC(=O)c1ccc(N2C(=S)N(c3ccc(C#N)c(C(F)(F)F)c3)C(=O)C2(C)C)cc1F + CC(Nc1ccc2c(c1)OCCn1cc(N3C(=O)OCC3C(F)F)nc1-2)C(N)=O here?
A: > 10000 nM

Q: And the IC50 (second compound 0.01 µM)?
A: > 10000 nM

Q: What about the IC50 (second compound 0.0316 µM) of the same compound?
A: > 10000 nM

Q: What about the IC50 (second compound 0.1 µM) of the same compound?
A: < 31.6 nM

Q: And the IC50 (second compound 0.316 µM)?
A: < 31.6 nM

Q: What about the IC50 (second compound 1 µM) of the same compound?
A: < 31.6 nM

Q: What about the viability, T/C (second compound 0.00316 µM, first compound 0.0316 µM) of the same compound?
A: 82.6%

Q: And the viability, T/C (second compound 0.00316 µM, first compound 0.1 µM)?
A: 86.7%

Q: What about the viability, T/C (second compound 0.00316 µM, first compound 0.316 µM) of the same compound?
A: 89%

Q: And the viability, T/C (second compound 0.00316 µM, first compound 1 µM)?
A: 88.2%

Q: What about the viability, T/C (second compound 0.00316 µM, first compound 3.16 µM) of the same compound?
A: 94.8%

Q: And the viability, T/C (second compound 0.00316 µM, first compound 10 µM)?
A: 83.5%

Q: What about the viability, T/C (second compound 0.01 µM, first compound 0.0316 µM) of the same compound?
A: 74.9%

Q: What about the viability, T/C (second compound 0.01 µM, first compound 0.1 µM) of the same compound?
A: 71.5%

Q: What about the viability, T/C (second compound 0.01 µM, first compound 0.316 µM) of the same compound?
A: 79.6%

Q: What about the viability, T/C (second compound 0.01 µM, first compound 1 µM) of the same compound?
A: 72.8%

Q: And the viability, T/C (second compound 0.01 µM, first compound 3.16 µM)?
A: 78.8%

Q: And the viability, T/C (second compound 0.01 µM, first compound 10 µM)?
A: 72.3%

Q: What about the viability, T/C [1] of the same compound?
A: 59.5%

Q: What about the viability, T/C [2] of the same compound?
A: 68.3%

Q: And the viability, T/C [3]?
A: 61%

Q: And the viability, T/C [4]?
A: 61.4%

Q: What about the viability, T/C [5] of the same compound?
A: 67.2%

Q: What about the viability, T/C [6] of the same compound?
A: 57.4%

Q: And the viability, T/C [7]?
A: 50.2%

Q: And the viability, T/C [8]?
A: 45.5%

Q: What about the viability, T/C [9] of the same compound?
A: 45.1%

Q: What about the viability, T/C [10] of the same compound?
A: 44.3%

Q: What about the viability, T/C [11] of the same compound?
A: 42.4%

Q: What about the viability, T/C [12] of the same compound?
A: 40.3%

Q: What about the viability, T/C [13] of the same compound?
A: 34.6%

Q: What about the viability, T/C [14] of the same compound?
A: 32.5%

Q: And the viability, T/C [15]?
A: 31.8%

Q: And the viability, T/C [16]?
A: 33%

Q: What about the viability, T/C [17] of the same compound?
A: 28.9%

Q: What about the viability, T/C [18] of the same compound?
A: 28.6%

Q: What about the viability, T/C [19] of the same compound?
A: 34.3%

Q: What about the viability, T/C [20] of the same compound?
A: 27.8%

Q: What about the viability, T/C [21] of the same compound?
A: 26.7%

Q: What about the viability, T/C [22] of the same compound?
A: 29.6%

Q: What about the viability, T/C [23] of the same compound?
A: 21.4%

Q: And the viability, T/C [24]?
A: 24.2%

Q: What does the source list for C#Cc1c(F)ccc2cc(O)cc(-c3ncc4c(N5CC6CCC(C5)N6)nc(OCC56CCCN5CC(F)C6)nc4c3F)c12 (centres undefined) + Cc1nc(NC(=O)N2CCCC2C(N)=O)sc1-c1ccnc(C(C)(C)C(F)(F)F)c1?
A: IC50 (second compound 0.0316 µM): > 10000 nM; IC50 (second compound 0.1 µM): > 10000 nM; IC50 (second compound 0.316 µM): 220 nM; IC50 (second compound 1 µM): < 31.6 nM; IC50 (second compound 3.16 µM): < 31.6 nM; IC50 (second compound 10 µM): < 31.6 nM; viability, T/C [1]: 89.9%; viability, T/C [2]: 88.9%; viability, T/C [3]: 84%; viability, T/C [4]: 81.3%; viability, T/C [5]: 77.9%; viability, T/C [6]: 75.5%; viability, T/C [7]: 77.4%; viability, T/C [8]: 71.4%; viability, T/C [9]: 74.6%; viability, T/C [10]: 79.8%; viability, T/C [11]: 60.9%; viability, T/C [12]: 55%; viability, T/C [13]: 59.6%; viability, T/C [14]: 51.2%; viability, T/C [15]: 51%; viability, T/C [16]: 44.3%; viability, T/C [17]: 42.9%; viability, T/C [18]: 41.9%; viability, T/C [19]: 41.4%; viability, T/C [20]: 39.5%; viability, T/C [21]: 41.7%; viability, T/C [22]: 40.3%; viability, T/C [23]: 40.3%; viability, T/C [24]: 30%; viability, T/C (second compound 3.16 µM, first compound 0.0316 µM): 30.8%; viability, T/C (second compound 3.16 µM, first compound 0.1 µM): 27.2%; viability, T/C (second compound 3.16 µM, first compound 0.316 µM): 31.2%; viability, T/C (second compound 3.16 µM, first compound 1 µM): 28.5%; viability, T/C (second compound 3.16 µM, first compound 3.16 µM): 30.5%; viability, T/C (second compound 3.16 µM, first compound 10 µM): 21.9%; viability, T/C (second compound 10 µM, first compound 0.0316 µM): 15.8%; viability, T/C (second compound 10 µM, first compound 0.1 µM): 17.6%; viability, T/C (second compound 10 µM, first compound 0.316 µM): 13.4%; viability, T/C (second compound 10 µM, first compound 1 µM): 17.6%; viability, T/C (second compound 10 µM, first compound 3.16 µM): 14.1%; viability, T/C (second compound 10 µM, first compound 10 µM): 15.8%
